In one test the target is Isocitrate lyase (Magnaporthe oryzae (strain 70-15 / FGSC 8958) (Rice blast fungus)(Pyricularia oryzae), UniProt P0CT06). The test is described as follows: Inhibition of Magnaporthe grisea isocitrate lyase. Set-up: species or system Pyricularia grisea.
Another test has as its system Staphylococcus aureus. The test is described as follows: Antibacterial activity against Staphylococcus aureus ATCC 65389 after 24 hrs by twofold dilution method. Format: functional. The following applies: ATCC 65389, 24 h.
Another test has as its system Salmonella typhimurium. Put plainly: Antibacterial activity against Salmonella Typhimurium ATCC 14028 after 24 hrs by two-fold dilution method. The format is functional, Salmonella enterica subsp. enterica serovar Typhimurium. The following applies: Salmonella enterica, ATCC 14028, 24 h.
Another test has as its system Bacillus subtilis. The test is described as follows: Antibacterial activity against Bacillus subtilis ATCC 6633 after 24 hrs by twofold dilution method. The format is functional. The settings on record: ATCC 6633, 24 h.
For another test, the system named is K562. Put plainly: Cytotoxicity against human K562 cells after 48 hrs by SRB assay. The format is functional. The following applies: K562, 48 h, read-out: LC50 (the source's name). For orientation: The SRB assay estimates cell density from bound dye.
A further test deals with Escherichia coli. The test is described as follows: Antibacterial activity against Escherichia coli ATCC 25922 after 24 hrs by twofold dilution method. The settings on record: ATCC 25922, 24 h. The format is functional.
The subject of another test is Proteus vulgaris. The test is described as follows: Antibacterial activity against Proteus vulgaris ATCC 3851 after 24 hrs by twofold dilution method. The format is functional. The following applies: ATCC 3851, 24 h.
Another test relates to Micrococcus luteus. Put plainly: Antibacterial activity against Micrococcus luteus IFC 12708 after 24 hrs by twofold dilution method. Format: functional. The following applies: IFC 12708, 24 h.

The values that follow come from ChEMBL document CHEMBL1154134, “Scalarane sesterterpenes from the sponge Smenospongia sp” (J Nat Prod, 2008).

≈ marks a conversion by molar mass, not a printed value. Bounds are passed on as bounds.

Chain of Isocitrate lyase (P0CT06 whole entry): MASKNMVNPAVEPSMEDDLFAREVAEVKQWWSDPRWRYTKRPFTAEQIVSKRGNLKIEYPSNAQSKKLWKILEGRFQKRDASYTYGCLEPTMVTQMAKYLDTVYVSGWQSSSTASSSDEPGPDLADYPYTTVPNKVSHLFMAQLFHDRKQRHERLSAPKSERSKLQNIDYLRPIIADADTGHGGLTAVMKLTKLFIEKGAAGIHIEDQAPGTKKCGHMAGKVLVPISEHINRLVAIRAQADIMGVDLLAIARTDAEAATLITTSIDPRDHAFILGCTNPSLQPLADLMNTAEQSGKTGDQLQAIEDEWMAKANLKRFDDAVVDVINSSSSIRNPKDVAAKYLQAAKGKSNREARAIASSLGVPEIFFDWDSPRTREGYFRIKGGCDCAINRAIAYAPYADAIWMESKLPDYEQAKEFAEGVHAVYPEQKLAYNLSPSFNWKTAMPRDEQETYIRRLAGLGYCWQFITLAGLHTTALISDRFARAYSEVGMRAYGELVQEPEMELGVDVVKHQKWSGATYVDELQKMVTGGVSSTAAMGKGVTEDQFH

What is called IC50 is the midpoint of a concentration-inhibition curve. What is called MIC is the least concentration at which growth counts as inhibited. Lower therefore signals a more susceptible organism. On to `COC(=O)C1=CC[C@@H]2[C@](C)(CC[C@H]3[C@@]2(C)CC[C@H]2C(C)(C)CCC[C@@]23COC(C)=O)[C@@H]1C=O`, for which the IC50 against Isocitrate lyase was more than 218 µM. Further, the MIC against Staphylococcus aureus, against Salmonella typhimurium, in the test with Bacillus subtilis, against Escherichia coli, with Proteus vulgaris and in the test with Micrococcus luteus was more than 100 µg/mL in each case. In addition, in the test on K562, the CC50 came to 3.7 µg/mL (≈ 8.07 µM).
On Isocitrate lyase, `CC(=O)O[C@@H]1OC=C2[C@@H](OC(C)=O)C[C@@H]3[C@](C)(CC[C@H]4[C@@]3(C)CC[C@H]3C(C)(C)CCC[C@@]34C=O)[C@H]21` gave an IC50 of more than 205 µM. Besides, the MIC against Staphylococcus aureus, against Salmonella typhimurium, against Bacillus subtilis, in the test on Escherichia coli, in the test with Proteus vulgaris and against Micrococcus luteus was more than 100 µg/mL throughout. Moreover, in the test with K562, the CC50 turned out to be 17.5 µg/mL (≈ 36 µM).
Turning to `O=C(O)CC[N+](=O)[O-]`, half-maximal inhibition at Isocitrate lyase (IC50) was put at 50.8 µM.
On to `CC(=O)OC[C@]12CCCC(C)(C)[C@@H]1CC[C@@]1(C)[C@@H]3CC=C(C(=O)O)[C@@H](C=O)[C@@]3(C)CC[C@@H]12`, for which the IC50 on Isocitrate lyase was more than 225 µM. Further, the MIC with Staphylococcus aureus was more than 100 µg/mL; against Salmonella typhimurium, more than 100 µg/mL; against Bacillus subtilis it was more than 100 µg/mL; against Escherichia coli it was more than 100 µg/mL; against Proteus vulgaris it was 100 µg/mL (≈ 225 µM); with Micrococcus luteus, more than 100 µg/mL. Further, the CC50 in the test with K562 turned out to be 4.2 µg/mL (≈ 9.45 µM).
Regarding `CC(=O)O[C@@H]1OC(=O)C2=CC[C@@H]3[C@](C)(CC[C@H]4[C@@]3(C)CC[C@H]3C(C)(C)CCC[C@@]34CO)[C@H]21`, on Isocitrate lyase, the half-inhibitory concentration (IC50) is more than 225 µM. The MIC was more than 100 µg/mL against Staphylococcus aureus; 6.25 µg/mL (≈ 14.1 µM) against Salmonella typhimurium; 1.56 µg/mL (≈ 3.51 µM) in the test on Bacillus subtilis; more than 100 µg/mL in the test with Escherichia coli; more than 100 µg/mL against Proteus vulgaris; 3.12 µg/mL (≈ 7.02 µM) in the test on Micrococcus luteus. Besides, the CC50 with K562 was 22.5 µg/mL (≈ 50.6 µM).
Regarding `CC1(C)S[C@@H]2[C@H](NC(=O)[C@H](N)c3ccccc3)C(=O)N2[C@H]1C(=O)O` [AMPICILLIN], the MIC is 1.56 µg/mL (≈ 4.46 µM) against Staphylococcus aureus; 3.12 µg/mL (≈ 8.93 µM) with Salmonella typhimurium; 1.56 µg/mL (≈ 4.46 µM) in the test on Bacillus subtilis; 12.5 µg/mL (≈ 35.8 µM) against Escherichia coli; 3.12 µg/mL (≈ 8.93 µM) in the test with Proteus vulgaris; 1.56 µg/mL (≈ 4.46 µM) in the test on Micrococcus luteus.
With `CC1=C(O)/C(=C/[C@H](C)CCC/C(C)=C/CC/C(C)=C/CCc2ccoc2)OC1=O`, the IC50 on Isocitrate lyase was 67.7 µM. Further, the MIC in the test on Staphylococcus aureus was 12.5 µg/mL (≈ 31.4 µM); in the test with Salmonella typhimurium, 6.25 µg/mL (≈ 15.7 µM); with Bacillus subtilis it was 6.25 µg/mL (≈ 15.7 µM); in the test on Escherichia coli, more than 100 µg/mL; with Proteus vulgaris, 6.25 µg/mL (≈ 15.7 µM); in the test on Micrococcus luteus, 6.25 µg/mL (≈ 15.7 µM). The CC50 in the test with K562 stood at 43.7 µg/mL (≈ 110 µM).
`CC1(C)CCC[C@@]2(CO)[C@H]1CC[C@]1(C)[C@@H]2CC[C@]2(C)c3cocc3CC[C@@H]12` had an IC50 against Isocitrate lyase of 123 µM. For the same compound, the MIC is more than 100 µg/mL in the test on Staphylococcus aureus; 12.5 µg/mL (≈ 33.7 µM) in the test with Salmonella typhimurium; 1.56 µg/mL (≈ 4.21 µM) with Bacillus subtilis; more than 100 µg/mL against Escherichia coli; more than 100 µg/mL in the test with Proteus vulgaris; 6.25 µg/mL (≈ 16.9 µM) in the test with Micrococcus luteus. For the same compound, in the test on K562, the CC50 came out at 0.97 µg/mL (≈ 2.62 µM).
Compound `CC(=O)OC[C@]12CCCC(C)(C)[C@@H]1CC[C@@]1(C)[C@@H]3C[C@H](OC(C)=O)C4=CO[C@@H](OC(C)=O)[C@@H]4[C@@]3(C)CC[C@@H]12` returned an IC50 against Isocitrate lyase of more than 188 µM. For the same compound, the MIC in the test with Staphylococcus aureus, in the test with Salmonella typhimurium, against Bacillus subtilis, against Escherichia coli, in the test with Proteus vulgaris and against Micrococcus luteus was more than 100 µg/mL throughout. Besides, the CC50 in the test on K562 came to 6.8 µg/mL (≈ 12.8 µM).
`CC(=O)OC[C@]12CCCC(C)(C)[C@@H]1CC[C@]1(C)[C@@H]2CC[C@]2(C)c3cocc3CC[C@@H]12` showed an IC50 at Isocitrate lyase of more than 242 µM. Besides, the minimum inhibitory concentration (MIC) is more than 100 µg/mL against Staphylococcus aureus; more than 100 µg/mL in the test with Salmonella typhimurium; 3.12 µg/mL (≈ 7.56 µM) with Bacillus subtilis; more than 100 µg/mL in the test on Escherichia coli; more than 100 µg/mL in the test on Proteus vulgaris; 25 µg/mL (≈ 60.6 µM) with Micrococcus luteus. For the same compound, the CC50 in the test with K562 was 2.3 µg/mL (≈ 5.57 µM).
Compound `COC(=O)C1=CC[C@@H]2[C@](C)(CC[C@H]3[C@@]2(C)CC[C@H]2C(C)(C)CCC[C@@]23COC(C)=O)[C@H]1C=O` gave an IC50 at Isocitrate lyase of 120 µM. For the same compound, the MIC against Staphylococcus aureus is 25 µg/mL (≈ 54.5 µM); in the test on Salmonella typhimurium, 12.5 µg/mL (≈ 27.3 µM); against Bacillus subtilis, 0.78 µg/mL (≈ 1.7 µM); against Escherichia coli it was more than 100 µg/mL; in the test with Proteus vulgaris, 6.25 µg/mL (≈ 13.6 µM); with Micrococcus luteus, 12.5 µg/mL (≈ 27.3 µM). The CC50 in the test with K562 is 8.6 µg/mL (≈ 18.8 µM).
At Isocitrate lyase, `CC1=C(O)/C(=C/[C@H](C)CC/C=C(/C)CCC/C=C(/C)CCc2ccoc2)OC1=O` gave a half-inhibitory concentration (IC50) of 78.3 µM. In addition, the minimal inhibitory concentration (MIC) against Staphylococcus aureus is 6.25 µg/mL (≈ 15.7 µM); in the test on Salmonella typhimurium, 12.5 µg/mL (≈ 31.4 µM); against Bacillus subtilis it was 6.25 µg/mL (≈ 15.7 µM); in the test on Escherichia coli, more than 100 µg/mL; against Proteus vulgaris, 6.25 µg/mL (≈ 15.7 µM); in the test with Micrococcus luteus, 3.12 µg/mL (≈ 7.83 µM). Moreover, the CC50 in the test with K562 was 7.3 µg/mL (≈ 18.3 µM).
At Isocitrate lyase, `CC(=O)O[C@@H]1OC=C2[C@H]1[C@@]1(C)CC[C@H]3[C@@](C)(CC[C@H]4C(C)(C)CCC[C@]34C)[C@@H]1C[C@@H]2O` had an IC50 of more than 232 µM. The MIC against Staphylococcus aureus was more than 100 µg/mL; in the test on Salmonella typhimurium it was 12.5 µg/mL (≈ 29 µM); against Bacillus subtilis it was 3.12 µg/mL (≈ 7.25 µM); in the test with Escherichia coli, more than 100 µg/mL; with Proteus vulgaris it was more than 100 µg/mL; against Micrococcus luteus it was more than 100 µg/mL. Further, the CC50 with K562 was 5.8 µg/mL (≈ 13.5 µM).
`CC(=O)O[C@@H]1OC=C2[C@@H](OC(C)=O)C[C@@H]3[C@](C)(CC[C@H]4[C@@]3(C)CC[C@H]3C(C)(C)CCC[C@@]34CO)[C@H]21` displayed an IC50 on Isocitrate lyase of more than 205 µM. Moreover, the MIC against Staphylococcus aureus was more than 100 µg/mL; against Salmonella typhimurium, 6.25 µg/mL (≈ 12.8 µM); against Bacillus subtilis it was 0.78 µg/mL (≈ 1.6 µM); in the test with Escherichia coli, more than 100 µg/mL; against Proteus vulgaris, more than 100 µg/mL; in the test on Micrococcus luteus it was 100 µg/mL (≈ 205 µM). Besides, the CC50 in the test on K562 stood at 0.13 µg/mL (≈ 0.266 µM).
For the compound `COc1cccc2c1C(=O)c1c(O)c3c(c(O)c1C2=O)C[C@@](O)(C(=O)CO)C[C@@H]3O[C@H]1C[C@H](N)[C@H](O)[C@H](C)O1` [DOXORUBICIN], in the test on K562, the CC50 worked out at 4.9 µg/mL (≈ 9.02 µM).
As for `C/C(=C\CC/C(C)=C/C[C@H](O)c1ccoc1)CC/C=C(\C)CC(=O)CC(C)C`, the IC50 against Isocitrate lyase is more than 259 µM. Moreover, the MIC with Staphylococcus aureus is more than 100 µg/mL; against Salmonella typhimurium it was more than 100 µg/mL; in the test with Bacillus subtilis it was 6.25 µg/mL (≈ 16.2 µM); against Escherichia coli, more than 100 µg/mL; with Proteus vulgaris, more than 100 µg/mL; against Micrococcus luteus, more than 100 µg/mL. Besides, the CC50 in the test with K562 is 5.7 µg/mL (≈ 14.7 µM).
As for `CO[C@@H]1OCC2=CC[C@@H]3[C@](C)(CC[C@H]4[C@@]3(C)CC[C@H]3C(C)(C)CCC[C@@]34CO)[C@H]21`, at Isocitrate lyase, the IC50 is 104 µM. In addition, the MIC is more than 100 µg/mL against Staphylococcus aureus; 6.25 µg/mL (≈ 15.5 µM) in the test with Salmonella typhimurium; 50 µg/mL (≈ 124 µM) in the test on Bacillus subtilis; more than 100 µg/mL against Escherichia coli; more than 100 µg/mL against Proteus vulgaris; more than 100 µg/mL against Micrococcus luteus. Further, the CC50 in the test on K562 worked out at 0.11 µg/mL (≈ 0.273 µM).
